Square brackets hold non-standard residues; d marks the D form. Peptide text beside a SMILES is read from it.

The values that follow come from publication PMC3411353 (Tetrahedron letters, 2010).

Test [1] concerns KOR. The conditions noted are these: after a single injection, result in words; ref [1a]; cited from earlier work.
Test [2] addresses KOR (Mus musculus, UniProt P33534). The test can be described thus: competition radioligand-binding assay, KOR, [^3H]U69,593, mouse brain membranes.

As for `CC(C)[C@@H](CN1CC[C@@](C)(c2cccc(O)c2)[C@@H](C)C1)NC(=O)[C@H]1Cc2ccc(O)cc2CN1` [JDTic, (3R)-7-hydroxy-N-[(1S)-1-[[(3R,4R)-4-(3-hydroxyphenyl)-3,4-dimethyl-1-piperidinyl]methyl]-2-methylpropyl]-1,2,3,4-tetrahydro-3-isoquinolinecarboxamide], in the test with KOR [1], the “duration of antagonist activity” value is on record as “lasting for weeks to more than a month”.
`O=C1N[C@@H](Cc2ccccc2)C(=O)N2CCC[C@@H]2C(=O)N[C@@H](Cc2ccccc2)C(=O)N[C@H]1Cc1c[nH]c2ccccc12` [L-Trp isomer, cyclo[Phe-D-Pro-Phe-Trp]] (cyclo(FWF[dP])): the affinity on KOR [2], expressed as Ki, was 21.2 ± 5.6 nM.
Turning to `Oc1ccc2c3c1O[C@H]1c4[nH]c5c(c4C[C@@]4(O)[C@@H](C2)N(CC2CC2)CC[C@]314)C[C@@]1(O)[C@H]2Cc3ccc(O)c4c3[C@@]1(CCN2CC1CC1)[C@H]5O4` [norBNI, norbinaltorphimine], the “duration of antagonist activity” value in the test with KOR [1] was “lasting for weeks to more than a month”.
With `NC(N)=Nc1ccc2[nH]c3c(c2c1)C[C@@]1(O)[C@H]2Cc4ccc(O)c5c4[C@@]1(CCN2CC1CC1)[C@H]3O5` [GNTI, 5′-guanidinonaltrindole], the “duration of antagonist activity” value in the test on KOR [1] is given as “lasting for weeks to more than a month”.
